Experimental data published in US4921865A, “Aminoacylates of glycerol acetal” (Societe de Conseils de Recherches et d'Applications …, priority 1987, dated 1990).

Tests used:
[1] = system: platelets (PAF induced platelet aggregation); test: inhibition of PAF-induced platelet aggregation in platelet rich plasma; assay type: cell-based, New Zealand rabbits; conditions: Oryctolagus cuniculus; rabbit platelet rich plasma, 2.5 nM PAF
Procedure: 1--INHIBITION OF THE PLATELETS AGGREGATION ON NEW ZEALAND RABBITS
The experimentation was conducted on platelets with plasma of New Zealand rabbits.
Blood samples were taken from auricular artery and placed in a citrate buffer (3.8 %; pH 7.4); blood was further centrifugated for 15 mn at 1200 RPM.
The tested sample was prepared in DMSO, then poured on platelets rich plasma for 1 mn, then a dose of 2.5 nM of PAF was added.
The determination is made on a Cronolog Coultronics apparatus which determines the transmission percentage corresponding to the maximum height of the peak before the desaggregation.
The percentage of variation of the inhibition with respect to the transmission percentage is calculated (control: pure DMSO).
This method was described in details in LABORATORY INVESTIGATIONS, Vol. 41, No. 3, p. 275, 1979, JEAN-PIERRE CAZENAVE, Dr. MED. , JACQUES BENVENISTE, Dr. MED., AND J. FRASER MUSTARD, M.D., "Aggregation of Rabbits Platelets by Platelet-Activating Factor Is Independent of the Release Reaction and the Arachidonate Pathway and Inhibited by Membrane-Active Drugs".
Five tests made on 5 different rabbits allowed us to calculate the IC50 of the various compounds using the linear regression test.

[2] = target: T1, [^3 H]-PAF binding, platelet membrane (Oryctolagus cuniculus, UniProt G1TEI7); test: inhibition of specific [3H]-PAF binding to rabbit platelet membranes; conditions: 1 nM [3H]-PAF, 0°C 1 h 30
T1 construct: Platelet membrane homogenate was stored at -80° C; from tissue; host or cells: rabbit platelets (membrane homogenate from lysed washed platelets)
T1 sequence (G1TEI7 1-342): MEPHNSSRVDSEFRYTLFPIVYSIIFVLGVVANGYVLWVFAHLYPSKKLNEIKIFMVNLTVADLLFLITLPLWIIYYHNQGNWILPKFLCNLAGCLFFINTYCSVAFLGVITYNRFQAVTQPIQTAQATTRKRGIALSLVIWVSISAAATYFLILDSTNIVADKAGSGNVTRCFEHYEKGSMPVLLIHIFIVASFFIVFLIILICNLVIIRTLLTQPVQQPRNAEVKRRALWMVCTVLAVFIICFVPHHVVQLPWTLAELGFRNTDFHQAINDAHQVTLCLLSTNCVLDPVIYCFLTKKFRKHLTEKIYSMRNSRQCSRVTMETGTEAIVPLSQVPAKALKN
Procedure: Synthetic tritiated [^3 H]-PAF used was in ethanol solution with a specific activity of 59.5 ci/mmols. Unlabelled PAF and lyso-PAF were solubilized in ethanol solution and stored at -80° C. The compounds were solubilized in DMSO.
Rabbit whole blood (6 volumes) was drawn from the central ear artery into 1 volume of ACD solution (citric acide 1.4 g, sodium citrate 2 5 g, Dextrose 2 g per 100 ml of H2 O) and centrifuged at 150 g for 15 minutes. The platelet-rich plasma (PRP) was carefully removed and centrifuged for 15 minutes at 1000 g. The platelet pellet was then washed 3 times: twice in Tris-HCl buffer 10 mM, pH 7.4 containing NaCl 150 mM, MgCl2 5 mM, EDTA 2 mM and the last time in the same but sodium-free buffer.
The platelet pellet was resuspended in this latter buffer, quickly frozen in liquid nitrogen and slowly thawed at room temperature for at least 3 times as described by T. Y. Shen et al. The lysed platelets were centrifuged at 100,000 g for 30 minutes in a BECKMAN model L8.55 ultra centrifuge (rotor 50.2 Ti). Platelet membrane homogenate was stored at -80° C. and used within two weeks without noticeable changes in PAF-acether binding characteristics.
Protein contain was determined by the Lowry method using bovine serum albumine as standard.
60 to 100 μg of membrane proteins were added to a final volume of 1 ml in plastic tubes containing 1 nM [^3 H]-PAF in Tris-HCl 10 mM pH 7 buffer containing 0.025 % bovine serum albumin and incubated with or without unlabelled PAF or PAF-antagonists. The incubation was carried out for 1 h 30 at 0° C. The bound [^3 H]-PAF was separated from the free [^3 H]-PAF by immediate filtration through whatman GF/C glass fiber filters under vacuum (Brandel system). The reaction and the filters were washed 3 times with 5 ml of ice-cold buffer. The filters were then placed into polyethylene phials filled up with 10 ml of liquid scintillation fluid and the radioactivity was measured by an LKB β counter with 45% efficiency.
The non specific binding was determined in the presence of 10^-6 M of unlabelled PAF. The specific binding was calculated by substracting non specific binding from the total binding. The inhibition by compounds on the specific [^3 H]-PAF binding was determined as the percent inhibition by the equation: [formula]

[3] = system: polymorphonuclear leukocytes (PMNs); test: antagonism of polymorphonuclear leukocyte aggregation induced by PAF; assay type: cell-based, rat (Wistar); conditions: PAF 10^-8, rat PMNs
Procedure: Polymorphonuclear leukocytes (PMNs) were obtained as described by A. W. Ford-Hutchinson et al. (Br - J. Pharmacol. 76, 367-371, 1982). Cell suspensions ([…]) were prepared from peritoneal exudates obtained after a 5 ml IP injection of sodium caseinate 12% (w/v) to male Wistar rats, 300 g body weight.
After centrifugation, cells were washed with Hanks and resuspended in MEM/Hepes 30 mM medium (PM=7.4) at a concentration of 10^7 cells/ml. Cytochalasin B (5 μg/ml) was added 10 minutes before trigering aggregation to amplify the PMNs aggregation. The light transmittance through the cell suspension (400 μl) was measured under a 900 R/mn magnetic stirring, with a dual beam aggregometer (Chronolog Corp. Coultronics.)
The control cuvet is the cell suspension diluted to 20% of the cell count with MEM and the difference represents 100% transmittance. Change in transmittance, which occurs when PAF is added, was continuously recorded.
Drugs solubilized in MEM/Hepes were added (4 μl) to PMNs suspension 2 minutes before PAF addition.

[4] = system: PAF-induced [Ca^2+ ]i mobilization, washed rabbits platelets; test: inhibition of intracytosolic free calcium mobilization induced by PAF in washed rabbit platelets; assay type: cell-based; conditions: PAF 2×10^-9 M; resting about 150 nM
Procedure: Blood was taken from the auricular artery of the rabbit on citric acid/sodium citrate/dextrose and anticoagulan and the washed platelets were prepared according to Ardlie et al., Brit. J. Pharmacology, 19, 7-17, 1970. They were incubated with acetylsalicylic salt (100 μM, 30 minutes) to avoid thromboxane induced aggregation. They were then loaded with the fluorescent calcium indicator dye quin 2 by incubation with quin 2 aceto-methylester (15 μM in DMSO, 20 minutes at room temperature) which penetrates the cell membrane and after hydrolysed is trapped in the platelet. Drugs were preincubated with platelets for 15 minutes simultaneously to CP/CPK mixture which destroys secreted ADP.
Fluorescent measurement was then performed (excitation λ=339 nm, emission λ=494 nm) after PAF addition to platelet suspension. The fluorescence intensity is proportional to the cytosolic free calcium level [Ca^2+ ]i which can be quantified as described by Tsien et al., J. Cell Biol., 94, 325-334, 1982.

Compound | IC50 [1] [µM] | other results
CCCCCCCCCCCCCCCCCC1(C)OCC(COC(=O)CCC[n+]2ccccc2)O1 (stereo not drawn) [Example 1, 2-heptadecyl 2-methyl 4-[4'-(N-pyridinium)butyryloxymethyl]-1,3-dioxolan chloride] | 2.2 | IC50 [2]: 0.45 µM
CCCCCCCCCCCCCCCCCC1(C)OCC(COC(=O)CCC[n+]2ccsc2)O1 (stereo not drawn) [Example 3, 2-heptadecyl 2-methyl 4-[4'-(N-thiazolinium)butyryloxymethyl]1,3-dixolan chloride] | 21.5 | –
CCCCCCCCCCCCCCCCCC1OCC(COC(=O)CCC[n+]2cccc3ccccc32)O1 (stereo not drawn) [Example 5, 2-heptadecyl 4[4'-(N-quinolinium)butyryloxymethyl] 1,3 dioxalan chloride] | 3.1 | –
CCCCCCCCCCCCCCCCCC1(C)OCC(COC(=O)CCCCCCCCCC[n+]2ccccc2)O1 (stereo not drawn) [Example 12, 2-heptadecyl 2-methyl 4-[11'-(N-pyridiniumundecanoyloxymethyl) 1,3-dioxolan bromide] | 31.2 | –
CCCCCCCCCC1(C)OCC(COC(=O)CCCCC[n+]2ccccc2)O1 (stereo not drawn) [Example 14, 2-nonyl 2-methyl 4-[6'-(N-pyridiniumhexanoyloxymethyl] 1,3-dioxolan bromide] | 1.46 | IC50 [2]: 0.61 µM
CCCCCCCCCCCCCCCCOCC(COP(=O)([O-])OCC[N+](C)(C)C)OC(C)=O (stereo not drawn) [PAF, reference compound] | – | aggregation of PMNs induced [3]: 55 to 70%; [Ca^2+ ]i level after stimulation [4]: 400 to 600 nM

More lines, in order of falling IC50 [1], values ahead:

IC50 [1] [µM] | Compound | other results
11.3 | COc1cc(C2(C)OCC(COC(=O)CCC[n+]3ccccc3)O2)cc(OC)c1OC (stereo not drawn) [Example 8, 2-(3,4,5-trimethoxyphenyl) 2-methyl 4-[4'-(N-pyridinium)butyryloxymethyl] 1,3-dioxolan chloride] | –
7 | CCCCCCCCCCCCCCCCCC1OCC(COC(=O)CCC[n+]2ccccc2)O1 (stereo not drawn) [Example 4, 2-heptadecyl 4-[4'-(N-pyridinium)butyryloxymethyl] 1,3-dioxolan chloride] | –
5 | CCCCCCCCCCCCCCCCCC1(C)OCC(COC(=O)CCCC[n+]2ccccc2)O1 (stereo not drawn) [Example 7, 2-heptadecyl 2-methyl 4-[5'-(N-pyridinium)pentanoyloxymethyl]1,3-dioxolanchloride] | –
3.04 | CCCCCCCCCCCCCCCCCC1(CCC)OCC(COC(=O)CCC[n+]2ccccc2)O1 (stereo not drawn) [Example 6, 2-heptadecyl 2-(n-propyl 4-(4'-(N-pyridinium)butyryloxymethyl]1,3-dioxolan chloride] | –
1.73 | CCCCCCCCCCCCCCCCCC1(CCC)OCC(COC(=O)CCCCC[n+]2ccccc2)O1 (stereo not drawn) [Example 13, 2-heptadecyl 2-(n-propyl) 4-[6'-(N-pyridinium)hexanoylmethyl] 1,3-dioxolanbromide] | –
1.2 | CCCCCCCCCCCCCCCCCC1(C)OCC(COC(=O)CCC[n+]2cccc3ccccc32)O1 (stereo not drawn) [Example 2, 2-heptadecyl 2-methyl 4-[4'(N-quinolinium)butyryloxymethyl]1,3-dioxolan chloride] | –
